The values that follow are results of earlier work, collected in CN105130966A, “炔基化合物及其使用方法和用途” (Add And Open Up Scientific Co, priority 2014, dated 2015).

The subject of data set [1] is any protein kinase tested (试验的任何蛋白激酶). The settings on record: Cell, 2006, 125, 733-747.
The target in a further data set is PI3Kδ (Mus musculus, UniProt O35904). The settings on record: ovalbumin-induced airway inflammation; FASEB, 2006, 20, 455-465.
Sequence of PI3Kδ (O35904 whole entry): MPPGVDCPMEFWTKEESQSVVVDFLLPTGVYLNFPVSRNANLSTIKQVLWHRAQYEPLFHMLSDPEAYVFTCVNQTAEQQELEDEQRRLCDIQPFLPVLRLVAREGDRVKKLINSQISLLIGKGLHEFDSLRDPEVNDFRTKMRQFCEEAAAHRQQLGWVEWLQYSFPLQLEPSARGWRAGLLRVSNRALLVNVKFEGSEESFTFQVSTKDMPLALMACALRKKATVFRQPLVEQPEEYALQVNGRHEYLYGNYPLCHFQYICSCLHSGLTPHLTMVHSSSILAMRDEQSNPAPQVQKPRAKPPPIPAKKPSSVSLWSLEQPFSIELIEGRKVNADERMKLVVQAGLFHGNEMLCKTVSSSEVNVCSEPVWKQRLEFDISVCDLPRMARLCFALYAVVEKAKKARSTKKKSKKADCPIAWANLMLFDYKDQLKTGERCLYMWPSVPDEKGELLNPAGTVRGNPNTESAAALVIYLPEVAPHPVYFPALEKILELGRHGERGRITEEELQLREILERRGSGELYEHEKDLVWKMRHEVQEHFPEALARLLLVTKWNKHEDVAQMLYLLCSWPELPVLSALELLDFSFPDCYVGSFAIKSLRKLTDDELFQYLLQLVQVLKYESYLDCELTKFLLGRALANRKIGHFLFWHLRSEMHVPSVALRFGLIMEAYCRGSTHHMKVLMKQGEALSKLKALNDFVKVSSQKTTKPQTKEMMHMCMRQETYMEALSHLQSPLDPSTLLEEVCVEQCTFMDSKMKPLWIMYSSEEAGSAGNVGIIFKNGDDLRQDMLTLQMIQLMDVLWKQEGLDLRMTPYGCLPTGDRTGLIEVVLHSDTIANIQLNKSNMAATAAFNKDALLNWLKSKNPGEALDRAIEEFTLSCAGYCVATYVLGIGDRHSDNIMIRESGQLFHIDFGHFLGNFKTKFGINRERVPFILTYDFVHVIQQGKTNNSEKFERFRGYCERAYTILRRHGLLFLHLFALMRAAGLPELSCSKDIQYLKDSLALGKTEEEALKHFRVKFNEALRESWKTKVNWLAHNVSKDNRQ
Sequence of PI3Kδ (P26450 whole entry partner): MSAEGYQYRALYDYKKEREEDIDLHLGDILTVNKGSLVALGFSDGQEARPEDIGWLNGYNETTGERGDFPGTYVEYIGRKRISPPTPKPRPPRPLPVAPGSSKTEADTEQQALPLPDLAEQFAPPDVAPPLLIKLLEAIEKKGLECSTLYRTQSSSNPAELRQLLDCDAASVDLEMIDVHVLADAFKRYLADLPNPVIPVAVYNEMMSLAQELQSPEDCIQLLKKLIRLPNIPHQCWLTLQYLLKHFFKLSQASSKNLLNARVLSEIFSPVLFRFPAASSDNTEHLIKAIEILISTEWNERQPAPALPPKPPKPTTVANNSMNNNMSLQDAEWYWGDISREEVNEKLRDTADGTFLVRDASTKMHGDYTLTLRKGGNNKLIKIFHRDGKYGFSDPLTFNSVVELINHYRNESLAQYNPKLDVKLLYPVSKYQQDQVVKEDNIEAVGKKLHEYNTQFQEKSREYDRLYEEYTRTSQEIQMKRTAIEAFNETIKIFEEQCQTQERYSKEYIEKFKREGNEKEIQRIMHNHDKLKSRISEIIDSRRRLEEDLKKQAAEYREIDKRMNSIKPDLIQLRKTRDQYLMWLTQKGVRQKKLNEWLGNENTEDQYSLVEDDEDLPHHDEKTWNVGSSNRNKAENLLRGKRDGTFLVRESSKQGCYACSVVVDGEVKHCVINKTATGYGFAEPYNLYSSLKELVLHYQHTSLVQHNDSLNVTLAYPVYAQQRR

Turning to `Cc1ccccc1-n1c(Cn2cnc3c(N)ncnc32)nc2cccc(C)c2c1=O` [IC87114], in data set [1], the activity result is given as “不显示活性”. Besides, the inflammation result at PI3Kδ is given as “显著改善炎症”.
